The results in this text go back to patent publication US8129381B2, “Caspase inhibitors and uses thereof” (Vertex Pharmaceuticals Incorporated, priority 2002, dated 2012).

Structures are written as SMILES.

Test [1] has as its target T1, recombinant, purified human Caspase-3 (Homo sapiens, UniProt P42574).
T1 sequence (P42574 29-175 limits assumed): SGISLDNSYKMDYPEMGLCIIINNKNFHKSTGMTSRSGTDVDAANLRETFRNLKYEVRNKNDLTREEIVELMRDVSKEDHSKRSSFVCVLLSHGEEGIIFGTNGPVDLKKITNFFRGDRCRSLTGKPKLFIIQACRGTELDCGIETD
T1 sequence (P42574 176-277 limits assumed): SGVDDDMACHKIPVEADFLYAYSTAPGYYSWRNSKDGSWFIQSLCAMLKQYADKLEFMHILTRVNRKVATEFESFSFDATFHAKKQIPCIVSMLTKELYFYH
In words: Enzyme assay, caspase inhibition (fluorogenic substrate cleavage). The format is biochemical. The following applies: second order rate constant of enzyme inactivation; substrate Acetyl-Asp-Glu-Val-Asp-amino-4-methylcoumarin. The text has this: (§1) The assays for caspase inhibition are based on the cleavage of a fluorogenic substrate by recombinant, purified human Caspases −1, −3, −7 or −8. The assays are run in essentially the same way as those reported by Garcia-Calvo et al., J. Biol. Chem. 273, 32608-32613 (1998), using a substrate specific for each enzyme. The substrate for Caspase-1 is Acetyl-Tyr-Val-Ala-Asp-amino-4-methylcoumarin and the substrate for Caspases −3, −7 and −8 is Acetyl-Asp-Glu-Val-Asp-amino-4-methylcoumarin both as disclosed in Garcia-Calvo et al., J. Biol. Chem. 273, 32608-32613 (1998).
(§2) The observed rate of enzyme inactivation at a particular inhibitor concentration, kobs, is computed by direct fits of the data to the equation derived by Thornberry et al., Biochemistry, 33, […] (1994) using a nonlinear least-squares analysis computer program (PRISM 2.0; GraphPad software). To obtain the second order rate constant, kinact, kobs values are plotted against their respective inhibitor concentrations and kinact values are subsequently calculated by computerized linear regression.
(§3) Compounds with kinact(M^−1s^−1)>500000 are listed as “A”. Compounds with kinact(M^−1s^−1) between 100000 and 500000 are listed as “B”. Compounds with kinact(M^−1s^−1)<100000 are listed as “C”.

Test [2] addresses T2, recombinant, purified human Caspase-1 (Homo sapiens, UniProt P29466).
T2 sequence (P29466 120-297 limits assumed): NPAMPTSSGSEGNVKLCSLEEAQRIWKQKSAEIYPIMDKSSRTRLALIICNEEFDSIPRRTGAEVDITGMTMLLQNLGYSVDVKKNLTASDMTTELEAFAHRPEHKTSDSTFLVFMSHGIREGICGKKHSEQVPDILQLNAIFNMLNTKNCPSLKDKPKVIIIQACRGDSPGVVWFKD
T2 sequence (P29466 317-404 limits assumed): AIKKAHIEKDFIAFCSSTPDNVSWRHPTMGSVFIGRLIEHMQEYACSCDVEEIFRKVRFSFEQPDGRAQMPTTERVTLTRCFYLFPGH
The test is described as above. The test is classed as biochemical. The conditions noted are these: second order rate constant of enzyme inactivation; substrate Acetyl-Tyr-Val-Ala-Asp-amino-4-methylcoumarin.
Text: as §1, §2, §3

Test [3] concerns the target recombinant, purified human Caspase-8 (Homo sapiens, UniProt Q14790). The description is as above. The test is classed as biochemical. The conditions noted are these: second order rate constant of enzyme inactivation; substrate Acetyl-Asp-Glu-Val-Asp-amino-4-methylcoumarin.
Text: as §1, §2, §3

Test [4] deals with rat cortical neurons. In words: Hypoxia-induced apoptosis of rat cortical neurons. The test is classed as cell-based, Wistar rat. The following applies: Cortical neurone, oxygen-depleted serum-free medium, Cell Death Detection ELISA (DNA fragmentation). The protocol:
Cortical neurons are dissociated from Wistar rat embryos (E17) by a modification of the procedure of Rogers et al., Brain Res. Bulletin, 44:131 (1998). Briefly, cerebral cortices are isolated aseptically from 15-20 Wistar rat embryos. A cell suspension is prepared by mincing the cerebral cortices and digesting them with papain. Cells are washed with ovomucoid enzyme inhibitor and DNaseI and plated onto Poly-D lysine coated plates in high glucose DMEM containing 10% heat-inactivated fetal calf serum, L-glutamine, penicillin and streptomycin. The yield of neurons is […] per embryo and they are 80-90% viable as assessed by Trypan blue exclusion.
The neurons are cultured in complete medium at 37° C. in a normal atmosphere for 48 hours prior to the hypoxia experiments. For hypoxia, the normal cell medium is replaced by oxygen-depleted serum-free medium. Cells are incubated in an atmosphere of 95% N2/5% CO2 for various lengths of time. Compounds are dissolved in DMSO at 100 mM then diluted in medium and added to the culture from time=0. The level of apoptosis is measured using a Cell Death Detection ELISA kit (Roche) which detects DNA fragmentation. Plates are read at 405 nm. Controls included cells cultured in aerobic conditions in serum-containing medium (+serum) and cells cultured in aerobic conditions in serum-deprived medium (−serum).
Compounds with an IC50>0.5 μM are listed as “A”. Compounds with an IC50 between 0.1 μM and 0.5 uM are listed as “B”. Compounds with an IC50<0.1 μM are listed as “C”.
Background: In an ELISA, binding on a coated surface is turned into a signal by an enzyme label.

The subject of test [5] is IL-1β secretion from human whole blood. In words: Inhibition of IL-1β secretion from whole blood. The format is cell-based. The conditions noted are these: human whole blood diluted 1:2 in PBS, LPS 5 ng/ml, 18 hours, ELISA. The protocol:
Human blood is freshly drawn from healthy donors and diluted 1:2 in PBS. To 500 μl of diluted blood […] of prediluted test compound in RPMI medium and […] LPS (5 ng/ml final concentration on the plate) are added (LPS, Serotype 0111:B4, Sigma L3012). After stimulation for 18 hours supernatants are collected and assayed for IL-1β levels using the appropriate ELISA kit (R&D systems).
Compounds with an IC50>10 μM are listed as “A”. Compounds with an IC50 between 1 μM and 10 uM are listed as “B”. Compounds with an IC50<1 μM are listed as “C”.

Sequence of recombinant, purified human Caspase-8 (Q14790 217-374 limits assumed): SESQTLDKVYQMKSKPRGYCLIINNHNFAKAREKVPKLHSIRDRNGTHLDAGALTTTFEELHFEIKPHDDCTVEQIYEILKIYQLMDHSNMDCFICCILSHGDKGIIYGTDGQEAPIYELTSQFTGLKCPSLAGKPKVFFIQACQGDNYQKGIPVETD
Sequence of recombinant, purified human Caspase-8 (Q14790 385-479 limits assumed): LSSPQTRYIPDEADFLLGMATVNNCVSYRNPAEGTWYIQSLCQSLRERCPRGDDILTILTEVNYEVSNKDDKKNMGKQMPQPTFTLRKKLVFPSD

As a reminder, the IC50 is the point on the concentration scale where inhibition reaches its midpoint. Higher therefore signals weaker potency. Regarding `CC[C@@H](C(=O)N[C@@H](CC(=O)O)C(=O)COc1c(F)c(F)cc(F)c1F)n1ccc2ccc(Cl)cc2c1=O` [Compound 10, (S,S)-3-[2-(7-chloro-1-oxo-1H-isoquinolin-2-yl)-butyrylamino]-4-oxo-5-(2,3,5,6-tetrafluoro-phenoxy)-pentanoic acid], the “kinact Caspase-3” value in test [1] was “A (Compounds with kinact(M^−1s^−1)>500000 are listed as “A”)”. In addition, the “kinact Caspase-1” value in test [2] was “A (Compounds with kinact(M^−1s^−1)>500000 are listed as “A”)”. The “kinact Caspase-8” value in test [3] was “C (Compounds with kinact(M^−1s^−1)<100000 are listed as “C”)”. Further, the IC50 in test [4] was less than 0.1 µM; in test [5], 1 to 10 µM.
